Results from paper PMC7561186, “Rational design of balanced dual-targeting antibiotics with limited resistance” (PLoS Biology, 2020).
Several values for one entry are separate records, joined by “and”; a condition that tells them apart may be missing. Equal entries are not always repeated.

Assays:
[1] = tested on: S. aureus ATCC 700699 VISA; assay: Time-dependent killing; assay type: cell-based; conditions: for Time-kill bacterial count: 10xMIC; for Colony numbers: time-kill raw counts, Samples 1-3
[2] = biological target: T1, S. aureus topoisomerase IV (Staphylococcus aureus, UniProt P0C1S7); assay: S. aureus topoisomerase IV gel-based assay; assay type: biochemical; conditions: quadruplicates
T1 construct: purchased Inspiralis Ltd., Norwich, UK
T1 sequence (P0C1S7 whole entry): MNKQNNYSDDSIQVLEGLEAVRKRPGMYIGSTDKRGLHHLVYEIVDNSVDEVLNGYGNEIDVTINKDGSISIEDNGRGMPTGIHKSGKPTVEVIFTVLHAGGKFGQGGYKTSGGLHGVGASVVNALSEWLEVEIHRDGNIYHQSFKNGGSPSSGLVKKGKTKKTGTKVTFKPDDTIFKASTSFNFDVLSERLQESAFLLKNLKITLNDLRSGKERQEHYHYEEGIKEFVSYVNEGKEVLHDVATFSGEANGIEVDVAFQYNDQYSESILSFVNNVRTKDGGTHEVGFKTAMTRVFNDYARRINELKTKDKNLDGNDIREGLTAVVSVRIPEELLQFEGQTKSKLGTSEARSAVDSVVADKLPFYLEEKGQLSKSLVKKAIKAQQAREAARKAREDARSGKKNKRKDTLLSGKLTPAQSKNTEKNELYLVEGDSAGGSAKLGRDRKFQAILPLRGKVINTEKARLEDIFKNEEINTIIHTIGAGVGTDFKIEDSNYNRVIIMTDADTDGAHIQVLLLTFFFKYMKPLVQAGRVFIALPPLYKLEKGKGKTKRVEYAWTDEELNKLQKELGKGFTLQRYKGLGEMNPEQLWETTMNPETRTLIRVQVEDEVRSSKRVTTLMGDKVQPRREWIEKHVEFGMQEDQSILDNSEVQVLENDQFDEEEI
T1 sequence (P0C1U9 whole entry, further chain): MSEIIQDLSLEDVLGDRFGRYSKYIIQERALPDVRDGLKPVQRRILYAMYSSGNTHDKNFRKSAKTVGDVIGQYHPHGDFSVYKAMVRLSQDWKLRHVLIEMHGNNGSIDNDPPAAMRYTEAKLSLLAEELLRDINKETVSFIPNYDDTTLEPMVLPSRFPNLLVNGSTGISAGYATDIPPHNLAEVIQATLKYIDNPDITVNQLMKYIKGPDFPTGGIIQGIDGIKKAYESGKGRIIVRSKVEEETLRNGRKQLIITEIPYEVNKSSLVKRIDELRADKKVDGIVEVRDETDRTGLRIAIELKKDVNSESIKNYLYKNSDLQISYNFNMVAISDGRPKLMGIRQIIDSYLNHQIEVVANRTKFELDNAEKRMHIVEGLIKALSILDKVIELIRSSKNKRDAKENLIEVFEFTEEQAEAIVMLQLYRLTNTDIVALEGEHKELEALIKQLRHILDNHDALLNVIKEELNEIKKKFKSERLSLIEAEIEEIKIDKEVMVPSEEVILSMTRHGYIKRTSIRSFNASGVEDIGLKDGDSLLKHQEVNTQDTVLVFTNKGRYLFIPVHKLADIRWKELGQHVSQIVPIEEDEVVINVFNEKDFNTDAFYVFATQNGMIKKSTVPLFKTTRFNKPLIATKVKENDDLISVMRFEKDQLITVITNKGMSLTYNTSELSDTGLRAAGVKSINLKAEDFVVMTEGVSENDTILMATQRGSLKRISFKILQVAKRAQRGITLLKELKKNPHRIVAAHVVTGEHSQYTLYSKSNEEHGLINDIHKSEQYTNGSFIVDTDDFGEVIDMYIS

[3] = Pharmacokinetics measurement in skin tissue; assay type: in vivo, mice
Experimental: Pharmacokinetics measurement of ULD1 and ULD2 in skin tissue was conducted parallelly with the mice dermal infection study. In all cases, skin tissue samples were collected at the termination and homogenized following the same method as homogenate preparation for bacterial enumeration. Before measurement, protein precipitation was performed by treating the samples with acetonitrile. Analytics were the performed by liquid chromatography coupled mass spectrometry (LC/MS/MS) on an AB SCIEX QTRAP mass spectrometer in electrospray, positive ions ionization mode, and with Multiple Reaction Monitoring scan mode. Samples were analyzed on a Phenomenex Luna 5u Phenyl-Hexyl 50 × 2.0 mm HPLC column in a mobile phase of A: acetonitrile/formic acid = 100/0.2 (v/v), and mobile phase of B: water / formic acid = 100/0.2 (v/v). The column’s temperature was set to 30 °C, the injection volumes were 10 μL, and measurement time was 5 minutes in all cases. Oxybutynin (0.01 ng/μL in acetonitrile) was used as an internal standard for the measurement. Finally, the concentration of the drug in tissue samples was calculated from the peak area ratio.

in vitro = conditions: human
Experimental: Cytotoxicity of compounds on HepG2 and MCF-7 mammalian cell lines was determined by using a standard LDH assay. Briefly, HepG2 and MCF-7 cells were cultured in Eagle’s MEM medium (from Gibco) supplemented with 2 mM L-glutamine (Sigma), 100 U/mL penicillin (Sigma), and 100 μg/mL streptomycin (Sigma), and 10% FBS (Gibco) at 37 °C and under 5% CO2. Next, LDH assays were performed according to manufacturer instructions (Thermo Fisher Scientific, Massachusetts, USA). By using a CyQUANT LDH Cytotoxicity Assay Kit. Firstly, the cells were seeded in 96-well microtiter plates at 10^5 cells/mL (100 μL/well) and allowed to attach overnight. […] Lysis buffer (10 μL, Thermo Fisher Scientific) was then added to the maximal LDH activity control wells and incubated additional 45 minutes. The cell culture supernatant (50 μL) was then transferred to a new 96-well plate and mixed with 50 μL of the reaction mixture. After 30 minutes on room temperature, reactions were stopped with 50 μL of the Stop solution. Absorbance (490 nm and 680 nm) was measured with the automatic microplate reader Synergy 4 Hybrid Microplate Reader (BioTek, VT, USA). All experiments were performed in triplicates and repeated 3 times. Statistical significance (P < 0.05) was calculated with 2-tailed Welch’s t-test between treated groups and DMSO. The percentage of cytotoxicity was determined according to the following equation: %Cytotoxicity=(CompoundtreatedLDHactivity-SpontaneousLDHactivity/MaximumLDHactivity-SpontaneousLDHactivity)*100

Haemophilus influenzae = assay: MIC, broth microdilution (CLSI); assay type: cell-based
Experimental: (§1) MICs were determined using a standard serial broth microdilution technique according to the CLSI guidelines. Briefly, bacterial strains were inoculated onto MHBII agar plates and were grown overnight at 37 °C. Next, 3 individual colonies from each strain were inoculated into 1 mL MHBII medium and propagated at 37 °C, 250 rpm overnight. In the cases of Enterococcus and Streptococcus sp., cells were plated to BHI agar plates, and BHI broth was used to determine MICs. […] Following dilutions, each well was seeded with 5×10^4 bacterial cells. All measurements were performed in 3 parallel replicates and to avoid possible edge effects in microwell plates, side rows (A and H) were filled with sterile medium. Following inoculations, plates were covered with lids and wrapped in polyethylene plastic bags to minimize evaporation but allow for O2 transfer. Plates were incubated at 37 °C under continuous shaking at 150 rpm for 18 hours. After incubation, OD600 of each well was measured using a BioTek Synergy 2 microplate reader.

Staphylococcus aureus = assay: MIC, broth microdilution (CLSI); assay type: cell-based
Experimental: as §1

Listeria monocytogenes = assay: MIC, broth microdilution (CLSI); assay type: cell-based; conditions: Listeria monocytogenes ATCC 19111
Experimental: as §1

Escherichia coli = assay: MIC, broth microdilution (CLSI); assay type: cell-based; conditions: Escherichia coli ATCC 25922
Experimental: as §1

Helicobacter pylori = assay: MIC, broth microdilution (CLSI); assay type: cell-based; conditions: Helicobacter pylori ATCC 43504
Experimental: as §1

Streptococcus pyogenes = assay: MIC, broth microdilution (CLSI); assay type: cell-based
Experimental: as §1

Pseudomonas aeruginosa = assay: MIC, broth microdilution (CLSI); assay type: cell-based
Experimental: as §1

Neisseria gonorrhoeae = assay: MIC, broth microdilution (CLSI); assay type: cell-based
Experimental: as §1

Shigella flexneri = assay: MIC, broth microdilution (CLSI); assay type: cell-based
Experimental: as §1

Enterococcus faecium = assay: MIC, broth microdilution (CLSI); assay type: cell-based
Experimental: as §1

Acinetobacter baumannii = assay: MIC, broth microdilution (CLSI); assay type: cell-based
Experimental: as §1

Streptococcus pneumoniae = assay: MIC, broth microdilution (CLSI); assay type: cell-based
Experimental: as §1

Clostridium difficile = assay: MIC, broth microdilution (CLSI); assay type: cell-based
Experimental: as §1

Enterococcus faecalis = assay: MIC, broth microdilution (CLSI); assay type: cell-based; conditions: Enterococcus faecalis ATCC 29212
Experimental: as §1

Cc1[nH]c(C(=O)Nc2nc3c(OCc4ccccc4)cc(C(=O)O)cc3s2)c(Cl)c1Cl [ULD2]
Time-kill bacterial count ([1]; time 0 hour): 2.80E+05 | Time-kill bacterial count ([1]; time 3 hour): 9.90E+04 | Time-kill bacterial count ([1]; time 6 hour): 5.60E+04 | Time-kill bacterial count ([1]; time 12 hour): 7.00E+03 | Time-kill bacterial count ([1]; time 18 hour): 4.90E+02 | Time-kill bacterial count ([1]; time 24 hour): 1.90E+02 | Time-kill bacterial count ([1]; time 48 hour): 1.70E+01 | cell killing (bactericidal) activity ([1]; 10× MIC, S. aureus ATCC 700699 (VISA), in words): exceed that of fusidic acid | Colony numbers ([1]; time 0 h, Dilution 100): 145 and 132 and 137 | Colony numbers ([1]; time 3 h, Dilution 100): 56 and 39 and 53 | Colony numbers ([1]; time 6 h, Dilution 100): 28 and 24 and 32 | Colony numbers ([1]; time 18 h, Dilution 1): 31 and 22 and 20 | Colony numbers ([1]; time 48 h, Dilution 0.5): 1 and 2 | IC50 [2]: 2 ± 0.3 nM | Drug concentration in mouse skin tissue (individual mice) ([3]; 73 h, 3 days twice-a-day topical 20 μL ointment containing 2% drug): 4224 ng/mL and 6654 ng/mL and 10244 ng/mL | Drug concentration in mouse skin tissue, Mean ([3]; 73 h, 3 days twice-a-day topical 20 μL ointment containing 2% drug, n = 3): 7041 ng/mL | skin concentration as multiple of the MIC in wild-type S. aureus VISA ([3]; topical treatment, mouse skin): up to 300 times the MIC | IC50 (in vitro): > 100000 nM | MIC (Haemophilus influenzae; ATCC49247, Haemophilus influenzae ATCC 49247): 0.125 µg/mL | MIC (Haemophilus influenzae; Haemophilus influenzae ATCC 35056): 1 µg/mL | MIC (Haemophilus influenzae; Haemophilus influenzae ATCC 49247): 0.125 µg/mL | MIC (Staphylococcus aureus; Staphylococcus aureus (strain not given), MRSA (SCCmec type IV), Oxacillin-R, VSSA, Cephalosporin-R, Erythromycin-R): 0.063 µg/mL | MIC (Staphylococcus aureus; Staphylococcus aureus ATCC 29213): 0.5 µg/mL | MIC (Staphylococcus aureus; Staphylococcus aureus ATCC 33594, MSSA, VSSA): 0.125 µg/mL | MIC (Staphylococcus aureus; Staphylococcus aureus ATCC 43300, MRSA): 0.0625 µg/mL | MIC (Staphylococcus aureus; Staphylococcus aureus ATCC 700699 (Mu50, NRS1), MRSA, VISA): < 0.0312 µg/mL | MIC (Staphylococcus aureus; Staphylococcus aureus CDC AR-BANK 0218, MRSA, VISA): 0.125 µg/mL | MIC (Staphylococcus aureus; Staphylococcus aureus ECL 2963646, MRSA, VRSA): < 0.0312 µg/mL | MIC (Staphylococcus aureus; Staphylococcus aureus NRS271, MRSA, Linezolid-R): 0.25 µg/mL | MIC (Staphylococcus aureus; Staphylococcus aureus USA300, ATCC BAA-1717, MRSA): 0.063 µg/mL | MIC (Staphylococcus aureus; Staphylococcus aureus USA400, BAA-1707, NRS123, MRSA): 0.125 µg/mL | MIC (Staphylococcus aureus; Staphylococcus aureus, ATCC 700699 / MRSA / NRS 1 / VISA, S. aureus ATCC 700699 (Mu50, NRS1), MRSA, VISA): ≤ 0.0312 µg/mL | MIC (Staphylococcus aureus; Staphylococcus aureus, S. aureus ECL 2963646, MRSA, VRSA): ≤ 0.0312 µg/mL | MIC (Listeria monocytogenes; ATCC19111): 0.125 µg/mL | MIC (Listeria monocytogenes): 0.125 µg/mL | MIC (Escherichia coli): 16 µg/mL | MIC (Helicobacter pylori): 4 µg/mL | MIC (Streptococcus pyogenes; Streptococcus pyogenes ATCC 14289): 0.25 µg/mL | MIC (Streptococcus pyogenes; Streptococcus pyogenes ATCC 19615): 0.125 µg/mL | MIC (Pseudomonas aeruginosa; ATCC27853, Pseudomonas aeruginosa ATCC 27853): 2 µg/mL | MIC (Pseudomonas aeruginosa; Pseudomonas aeruginosa ATCC 27853): 2 µg/mL | MIC (Pseudomonas aeruginosa; Pseudomonas aeruginosa B3-1811, Ciprofloxacin-R, Cephalosporin-R): 16 µg/mL | MIC (Neisseria gonorrhoeae; CCUG57598, Neisseria gonorrhoeae CCUG 57598): ≤ 0.0312 µg/mL | MIC (Neisseria gonorrhoeae; Neisseria gonorrhoeae ATCC 700825): < 0.0312 µg/mL | MIC (Neisseria gonorrhoeae; Neisseria gonorrhoeae CCUG 57598): < 0.0312 µg/mL | MIC (Shigella flexneri; Shigella flexneri 668): 16 µg/mL | MIC (Shigella flexneri; Shigella flexneri HNCMB 20018): 8 µg/mL | MIC (Enterococcus faecium; Enterococcus faecium ATCC 19434): 0.5 µg/mL | MIC (Enterococcus faecium; Enterococcus faecium ATCC 700221, VRE (VanA+)): 0.0625 µg/mL | MIC (Enterococcus faecium; Enterococcus faecium CCUG 56858, VRE (VanB+)): 0.25 µg/mL | MIC (Acinetobacter baumannii; ATCC19606, Acinetobacter baumannii ATCC 19606): 0.5 µg/mL | MIC (Acinetobacter baumannii; Acinetobacter baumannii ATCC 17978): 2 µg/mL | MIC (Acinetobacter baumannii; Acinetobacter baumannii ATCC 19606): 0.5 µg/mL | MIC (Streptococcus pneumoniae; Streptococcus pneumoniae ATCC 49619): 0.25 µg/mL | MIC (Streptococcus pneumoniae; Streptococcus pneumoniae ATCC 51916): 0.25 µg/mL | MIC (Streptococcus pneumoniae; Streptococcus pneumoniae ATCC 700673): 0.25 µg/mL | MIC (Clostridium difficile; Clostridioides difficile, BAA1875): ≤ 0.0312 µg/mL | MIC (Clostridium difficile; Clostridium difficile BAA-1875): < 0.0312 µg/mL | MIC (Enterococcus faecalis): < 0.0312 µg/mL
